Assay [1] has as its system T1, AncMam TRPM8.
T1 construct: tetramer
Nature of the assay: Fluoforte calcium flux assay, HEK-293T stable cells. Particulars: Homo sapiens. The assay is classed as cell-based. A general note: Calcium assays in cells follow changes in intracellular calcium, usually with a dye or a luminescent sensor.

In assay [2] the test system is T2, AncVert TRPM8.
T2 construct: tetramer
The assay is described as above. The class given is cell-based. Particulars: Homo sapiens.

Usually EC50 stands for the concentration giving half of the maximal effect. Take `CC(C)[C@@H]1CC[C@@H](C)C[C@H]1O` [menthol]: the EC50 in assay [1] worked out at 10 ± 1 µM; in assay [2], 140 ± 40 µM.
